Measured values: ChEMBL document CHEMBL1201862, “PubChem BioAssay data set” (2004)
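Interpolation was linear, between the two tested concentrations surrounding the appropriate level; five concentrations were tested over 48 hours in 96-well plates. Abbreviation: GI50, concentration required for 50% inhibition of growth.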 Activity calls are given as the source filed them. No stated cut-off is given here; in the data, active = GI50 up to about 1.1 µM and inactive = higher.

Tests used:
Experiment in all cases: NCI anticancer screen, dose series, 48 h
BT-549 = test system: BT-549
DU-145 = test system: DU-145
Hs-578T = test system: Hs-578T
MDA-MB-231 = test system: MDA-MB-231
MDA-MB-435 = test system: MDA-MB-435
MDA-N = test system: MDA-N
PC-3 = test system: PC-3
T47D = test system: T47D
786-0 = test system: 786-0

Measured: GI50

CC#CC#C/C=C1\C=CC2(OC=CC2OC(C)=O)O1 (stereo unspecified)
inactive: BT-549 34.7 µM | DU-145 20.4 µM | Hs-578T 27.4 µM | MDA-MB-231 17.8 µM | MDA-MB-435 29.4 µM | MDA-N 15.8 µM | PC-3 28.2 µM | T47D 24.1 µM

COc1ccc(-c2cc(O)c3cc(C)cnc3n2)cc1
inactive: BT-549 2 µM | DU-145 19.2 µM | Hs-578T 4.66 µM | MDA-MB-231 16.2 µM | MDA-MB-435 1.85 µM | T47D 5.38 µM

C=C1CCCC2[C@](C)(CC3=C(O)C(=O)C=C(OC)C3=O)[C@@H](C)CC[C@]12C (stereo partly specified)
inactive: 786-0 2.64 µM

NC(CSC(=O)c1ccccc1)C(=O)O (stereo unspecified)
inactive: 786-0 > 100 µM | BT-549 > 100 µM | DU-145 > 100 µM | Hs-578T > 100 µM | MDA-MB-231 > 100 µM | MDA-MB-435 > 100 µM | MDA-N > 100 µM | PC-3 > 100 µM

Cn1c2c(c3ccccc31)CCN(CCCN1CCN(c3ccccc3)CC1)C2=O
inactive: 786-0 19.5 µM

CN(C)C(=S)/N=C1\SC(=N\c2ccccc2)/C(=N/c2ccccc2)N1c1ccc([N+](=O)[O-])cc1
inactive: BT-549 > 100 µM | DU-145 > 100 µM | Hs-578T > 100 µM | MDA-MB-231 > 100 µM | MDA-MB-435 > 100 µM | MDA-N > 100 µM | PC-3 8.32 µM | T47D > 100 µM

O=[N+]([O-])c1ccc(CNC2=NNS(=O)(=O)c3ccccc32)cc1
inactive: 786-0 > 100 µM

CC(NC(=O)C(NC(=O)CNC(=O)OC(C)(C)C)C(C)C)C(=O)Oc1c(Cl)c(Cl)c(Cl)c(Cl)c1Cl (stereo unspecified)
inactive: BT-549 23.8 µM | DU-145 20.5 µM | Hs-578T 20.1 µM | MDA-MB-231 22.6 µM | MDA-MB-435 23.4 µM | MDA-N 25.1 µM | PC-3 16 µM | T47D 23.1 µM
